Reference: patent US20070037816A1, “Bicyclic piperazines as metabotropic glutatmate receptor antagonists” (AstraZeneca AB, priority 2005, published 2007)

Each compound was assayed against T1, human mGluR5d (Homo sapiens, UniProt P41594) (assay: Functional assessment of mGluR5 antagonism in cell lines expressing mGluR5d (FLIPR calcium mobilization / IP3 turnover; assay not given)). Conditions: cells expressing human mGluR5d; assay (FLIPR or IP3) not stated.
T1 construct: expressed in transfected cells; host or cells: GHEK (HEK cells expressing a glutamate transporter) for the IP3 assay
Format: cell-based
From the text: The pharmacological properties of the compounds of the invention can be analyzed using standard assays for functional activity. Examples of glutamate receptor assays are well known in the art as described in for example Aramori et al., Neuron 8:757 (1992), Tanabe et al., Neuron 8:169 (1992), Miller et al., J. Neuroscience 15: 6103 (1995), Balazs, et al., J. Neurochemistry 69:151 (1997). The methodology described in these publications is incorporated herein by reference. Conveniently, the compounds of the invention can be studied by means of an assay that measures the mobilization of intracellular calcium, [Ca^2+]i in cells expressing mGluR5.
Intracellular calcium mobilization was measured by detecting changes in fluorescence of cells loaded with the fluorescent indicator fluo-3. Fluorescent signals were measured using the FLIPR system (Molecular Devices). A two addition experiment was used that could detect compounds that either activate or antagonize the receptor.
For FLIPR analysis, cells expressing human mGluR5d were seeded on collagen coated clear bottom 96-well plates with black sides and analysis of [Ca^2+]i mobilization was done 24 hours after seeding.
FLIPR experiments were done using a laser setting of 0.800 W and a 0.4 second CCD camera shutter speed. Each FLIPR experiment was initiated with 160 μL of buffer present in each well of the cell plate. After each addition of the compound, the fluorescence signal was sampled 50 times at 1 second intervals followed by 3 samples at 5 second intervals. Responses were measured as the peak height of the response within the sample period.
EC50 and IC50 determinations were made from data obtained from 8-point concentration response curves (CRC) performed in duplicate. Agonist CRC were generated by scaling all responses to the maximal response observed for the plate. Antagonist block of the agonist challenge was normalized to the average response of the agonist challenge in 14 control wells on the same plate.
We have validated a secondary functional assay for mGluR5d based on Inositol Phosphate (IP3) turnover. IP3 accumulation is measured as an index of receptor mediated phospholipase C turnover. GHEK cells stably expressing the human mGluR5d receptors were incubated with [3H] myo-inositol overnight, washed three times in HEPES buffered saline and pre-incubated for 10 minutes with 10 mM LiCl. Compounds (agonists) were added and incubated for 30 minutes at 37° C. Antagonist activity was determined by pre-incubating test compounds for 15 minutes, then incubating in the presence of glutamate (80 μM) or DHPG (30 μM) for 30 minutes. Reactions were terminated by the addition of perchloric acid (5%). Samples were collected and neutralized, and inositol phosphates were separated using Gravity-Fed Ion-Exchange Columns.
Functional Assessment of mGluR5 Antagonism in Cell Lines Expressing mGluR5d
The properties of the compounds of the invention can be analyzed using standard assays for pharmacological activity. Examples of glutamate receptor assays are well known in the art as described in for example Aramori et al, Neuron 8:757 (1992), Tanabe et al., Neuron 8:169 (1992), Miller et al, J. Neuroscience 15: 6103 (1995), Balazs, et al, J. Neurochemistry 69:151 (1997). The methodology described in these publications is incorporated herein by reference. Conveniently, the compounds of the invention can be studied by means of an assay (FLIPR) that measures the mobilization of intracellular calcium, [Ca^2+]i in cells expressing mGluR5 or another assay (IP3) that measures inositol phosphate turnover.
Cells expressing human mGluR5d as described in W097/05252 are seeded at a density of 100,000 cells per well on collagen coated clear bottom 96-well plates with black sides and experiments are done 24 h following seeding. […]

T1 sequence (P41594 21-942 isoform P41594-3 limits assumed): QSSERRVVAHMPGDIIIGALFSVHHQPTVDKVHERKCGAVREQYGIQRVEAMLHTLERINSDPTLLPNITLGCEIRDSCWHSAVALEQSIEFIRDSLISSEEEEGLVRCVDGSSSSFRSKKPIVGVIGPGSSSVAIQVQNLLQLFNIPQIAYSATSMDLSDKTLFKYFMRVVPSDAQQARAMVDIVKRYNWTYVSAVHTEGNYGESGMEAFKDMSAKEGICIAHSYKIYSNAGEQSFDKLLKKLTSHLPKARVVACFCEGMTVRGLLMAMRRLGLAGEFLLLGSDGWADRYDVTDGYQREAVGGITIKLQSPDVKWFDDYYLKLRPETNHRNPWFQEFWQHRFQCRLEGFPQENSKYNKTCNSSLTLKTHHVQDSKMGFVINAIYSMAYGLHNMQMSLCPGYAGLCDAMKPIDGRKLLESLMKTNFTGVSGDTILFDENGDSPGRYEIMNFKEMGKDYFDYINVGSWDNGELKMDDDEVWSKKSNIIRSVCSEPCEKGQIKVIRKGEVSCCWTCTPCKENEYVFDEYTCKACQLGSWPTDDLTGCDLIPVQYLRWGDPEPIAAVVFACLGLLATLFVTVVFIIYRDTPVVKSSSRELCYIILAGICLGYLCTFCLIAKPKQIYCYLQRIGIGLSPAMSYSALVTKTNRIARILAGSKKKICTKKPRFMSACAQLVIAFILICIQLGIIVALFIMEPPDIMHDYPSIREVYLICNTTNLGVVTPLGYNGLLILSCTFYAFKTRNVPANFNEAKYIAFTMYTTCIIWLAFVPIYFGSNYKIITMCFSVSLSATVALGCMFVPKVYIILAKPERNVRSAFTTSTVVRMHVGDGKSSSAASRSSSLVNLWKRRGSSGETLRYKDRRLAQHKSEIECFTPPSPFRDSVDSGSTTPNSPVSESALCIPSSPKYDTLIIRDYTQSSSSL

EC50 [µM] | Structure (SMILES)
0.377 | N#Cc1nccnc1N1CCN2[C@@H](CC[C@@H]2c2cc(-c3cccc(Cl)c3)no2)C1 (racemic) [Example 8.1, (±)-3-[(6R,8aS)-6-[3-(3-chlorophenyl)isoxazol-5-yl]hexahydropyrrolo[1,2-a]pyrazin-2(1H)-yl]pyrazine-2-carbonitrile]
2.41 | N#Cc1ccc(N2CCN3[C@@H](CC[C@@H]3c3cc(-c4cccc(Cl)c4)on3)C2)nc1 (racemic) [Example 6.2, (±)-6-[(6R,8aS)-6-[5-(3-chlorolphenyl)isoxazol-3-yl]hexahydropyrrolo[1,2-a]pyrazin-2(1H)-yl]nicotinonitrile]
0.159 | N#Cc1cccc(-c2cc([C@H]3CCC[C@H]4CN(c5nccnc5C#N)CCN43)no2)c1 (racemic) [Example 13.1, (±)-3-[(6R,9aS)-6-[5-(3-cyanophenyl)isoxazol-3-yl]octahydro-2H-pyrido[1,2-a]pyrazin-2-yl]pyrazine-2-carbonitrile]
0.016 | Cc1cccc(-n2nnc([C@H]3CC[C@H]4CN(c5ncccc5C#N)CCN43)n2)c1 (racemic) [Example 5.4, (±)-2-[(6R,8aS)-6-[2-(3-methylphenyl)-2H-tetrazol-5-yl]hexahydropyrrolo[1,2-a]pyrazin-2(1H)-yl]nicotinonitrile]
0.219 | N#Cc1cccnc1N1CCN2[C@@H](CC[C@@H]2c2cn(-c3cccc(F)c3)nn2)C1 (racemic) [Example 4.1, (±)-2-[(6R,8aS)-6-[1-(3-fluorophenyl)-1H-1,2,3-triazol4-yl]hexahydropyrrolo[1,2-a]pyrazin-2(1H)-yl]nicotinonitrile]
0.01 | N#Cc1nccnc1N1CCN2[C@@H](CC[C@@H]2c2nnn(-c3cccc(Cl)c3)n2)C1 (racemic) [Example 5.1, (±)-3-[(6R,8aS)-6-[2-(3-chlorophenyl)-2H-tetrazol-5-yl]hexahydropyrrolo[1,2-a]pyrazin-2(1H)-yl]pyrazine-2-carbonitrile]
